For one data set, the target named is recombinant human PDE5 (Homo sapiens, UniProt O76074). Briefly: Inhibitory effect on cGMP-PDE (PDE5 IC50 determination). It is filed as biochemical. As to conditions: in vitro. Here is the method:
The compounds of structural formula (I) were tested for an ability to inhibit PDE5. The ability of a compound to inhibit PDE5 activity is related to the IC50 value for the compound, i.e., the concentration of inhibitor required for 50% inhibition of enzyme activity. The IC50 value for compounds of structural formula (I) were determined using recombinant human PDE5.
Phosphodiesterase activity of the preparations was determined as follows. PDE assays utilizing a charcoal separation technique were performed essentially as described in Loughney et al. (1996). In this assay, PDE activity converts [32P]cAMP or [32P]cGMP to the corresponding [32P]5′-AMP or [32P]5′-GMP in proportion to the amount of PDE activity present. The [32P]5′-AMP or [32P]5′-GMP then was quantitatively converted to free [32P]phosphate and unlabeled adenosine or guanosine by the action of snake venom 5′-nucleotidase. […] The assay was performed at 30° C. in a 100 μL reaction mixture containing (final concentrations) 40 mM Tris HCl (pH 8.0), 1 μM ZnSO4, 5 mM MgCl2, and 0.1 mg/mL bovine serum albumin (BSA). PDE enzyme was present in quantities that yield <30% total hydrolysis of substrate (linear assay conditions). The assay was initiated by addition of substrate ([…] [32P]cAMP or cGMP), and the mixture was incubated for 12 minutes. seventy-five (75) μg of Crotalus atrox venom then was added, and the incubation was continued for 3 minutes (15 minutes total). The reaction was stopped by addition of 200 μL of activated charcoal (25 mg/mL suspension in 0.1 M NaH2PO4, pH 4). After centrifugation (750×g for 3 minutes) to sediment the charcoal, a sample of the supernatant was taken for radioactivity determination in a scintillation counter and the PDE activity was calculated.
cGMP-PDE activity of compounds of the present invention was measured using a one-step assay adapted from Wells et al., Biochim. Biophys. Acta, 384, 430 (1975). The reaction medium contained 50 mM Tris-HCl, pH 7.5, 5 mM magnesium acetate, 250 μg/ml 5′-Nucleotidase, 1 mM EGTA, and 0.15 μM 8-[H^3]-cGMP. Unless otherwise indicated, the enzyme used was a human recombinant PDE5 (ICOS Corp., Bothell, Wash.).
Compounds of the invention were dissolved in DMSO finally present at 2% in the assay.

On to `CN1CC(=O)N2[C@H](c3ccc4c(c3)OCO4)c3c(c4ccccc4n3Cc3ccccc3)C[C@H]2C1=O` [Example 3, (6R,12aS)-6-Benzo[1,3]dioxol-5-yl-7-benzyl-2-methyl-2,3,6,7,12,12a-hexahydropyrazino-[1′,2′:1,6]pyrido[3,4-b]indole-1,4-dione], for which the melting point – broadly, the temperature of the solid-liquid transition – fell in the range of 110 to 145 °C. Moreover, the IC50 – broadly, the concentration that gives 50% inhibition – at recombinant human PDE5 amounted to 313 nM.
The compound `CN1CC(=O)N2[C@H](c3ccc4c(c3)OCO4)c3c(c4ccccc4n3C)C[C@H]2C1=O` [Example 1, (6R,12aS)-6-Benzo[1,3]dioxol-5-yl-2,7-dimethyl-2,3,6,7,12,12a-hexahydropyrazino[1′,2′:1,6]-pyrido[3,4-b]indole-1,4-dione] showed a melting point of 386 to 387 °C. Also, the IC50 at recombinant human PDE5 is 124 nM.
For the compound `CN1CC(=O)N2[C@H](c3ccc4c(c3)OCO4)c3c(c4ccccc4n3C)C[C@@H]2C1=O` [Example 2, (6R,12aR)-6-Benzo[1,3]dioxol-5-yl-2,7-dimethyl-2,3,6,7,12,12a-hexahydropyrazino[1′,2′:1,6]-pyrido[3,4-b]indole-1,4-dione], on recombinant human PDE5, the IC50 was found to be 571 nM.
The compound `CC(=O)n1c2c(c3ccccc31)C[C@@H]1C(=O)N(C)CC(=O)N1[C@@H]2c1ccc2c(c1)OCO2` [Example 4, (6R,12aR)-7-Acetyl-6-benzo[1,3]dioxol-5-yl-2-methyl-2,3,6,7,12,12a-hexahydropyrazino-[1′,2′:1,6]pyrido[3,4-b]indole-1,4-dione] displayed a melting point of 145 to 159 °C. On recombinant human PDE5, the IC50 came out at 7 nM.

These data come from patent US7098209B2, “Pyrazino [1'2':1,6 ] pyrido [3, 4-b] indole-1,4-dione derivatives” (Lilly Icos LLC, priority 2001, dated 2006).
